# Assay results: patent US4923963A, “Bradykinin antagonist peptides” (Nova Technology Limited Partnership, priority 1987, dated 1990)
# Where two headings read alike, the source gives them in different places. Square brackets hold non-standard residues; d marks the D form. Peptide text beside a SMILES is read from it. dPhe(4-Cl) = N[C@H](Cc1ccc(Cl)cc1)C(=O)O; d2Nal = N[C@H](Cc1ccc2ccccc2c1)C(=O)O; Hyp = O=C(O)[C@@H]1C[C@@H](O)CN1; 2Thi = N[C@@H](Cc1cccs1)C(=O)O; d2Thi = N[C@H](Cc1cccs1)C(=O)O
# What was measured:
# isolated rat uterus = assay type: cell-based; conditions: for pA2 /RUT: activity class: not quantitated
# Method: The bradykinin antagonists were assayed on isolated rat uterus in natural or induced estrus and on guinea pig ileum, according to the commonly accepted assay methods for bradykinin and related kinins as described by Trautschold (Handbook of Expt. Pharmacol. Vol 25, Springer Verlag, pp. 53-55, 1970) for inhibition of the myotropic activity of bradykinin. The inhibition potencies, as determined according to the commonly accepted manner described by Schild for antagonists of biologically active compounds (Br. J. Pharmacol. 2:189, 1947), and expressed as pA2 values are determined on isolated rat uterus (RUT) and isolated guinea pig ileum (GPI). In the assays, a dose-response curve is determined for the reference substance bradykinin. The dose of bradykinin which produced a half maximal contraction of tissue is the ED50 dose. An amount of bradykinin equivalent to twice the ED50 dose is administered to the tissue 30 seconds after the start of incubation of the tissue with a dose of antagonist. Doses of antagonist are increased in this protocol until pre-incubation with a dose of antagonist reduces the contraction in response to the double ED50 dose of bradykinin to response of a single ED50 dose of bradykinin. The pA2 value represents the negative logarithm of the molar concentration of antagonist necessary to reduce the response of a double ED50 dose of bradykinin to that of an ED50 dose. One unit of pA2 value represents an order of magnitude change in potency. For comparison, the negative log of the dose of BK, the dose which causes half maximal contraction of the tissues, is commonly known as the pD2 value. The pD2 value for bradykinin is 7.9 on the rat uterus and 7.4 on the guinea pig ileum.
# rat blood pressure = experiment: effects on blood pressure in the anesthetized rat (RBP), intraaortic and intravenous bolus; assay type: in vivo; set-up: RBP-IA: activity class / RBP-IV: activity class: scale not given here
# Method: The in vivo effects of bradykinin antagonists on blood pressure in the anesthetized rat are determined according to the assay described by Roblero, Ryan and Stewart (Res. Commun. Pathol. Pharmacol. 6:207, 1973). The antagonists also produce inhibition of the bradykinin response when injected as a bolus admixture of bradykinin plus antagonist by either the ia or iv route of administration.
# [1] = isolated rat uterus, number of tissues in parentheses
# [2] = rat blood pressure, intraaortic bolus
# [3] = rat blood pressure, intravenous bolus
smiles,measurement,setting,value
"N=C(N)NCCC[C@H](NC(=O)[C@H](Cc1ccccc1)NC(=O)[C@@H](Cc1ccccc1)NC(=O)[C@H](CO)NC(=O)[C@H](Cc1ccccc1)NC(=O)CNC(=O)[C@@H]1CCCN1C(=O)[C@@H]1CCCN1C(=O)[C@@H](N)CCCNC(=N)N)C(=O)O [Example 1, Arg-Pro-Pro-Gly-Phe-Ser-DPhe-Phe-Arg] (H-RPPGFS[dF]FR-OH)",pA2 /RUT (antagonist potency),isolated rat uterus; [1],5.0
"N=C(N)NCCC[C@@H](N)C(=O)N[C@H](Cc1ccc(Cl)cc1)C(=O)N1CCC[C@H]1C(=O)N1CCC[C@H]1C(=O)NCC(=O)N[C@@H](Cc1ccccc1)C(=O)N[C@@H](CO)C(=O)N[C@H](Cc1cccs1)C(=O)N[C@@H](Cc1ccccc1)C(=O)N[C@@H](CCCNC(=N)N)C(=O)O [Example 7, DArg-CDF-Pro-Pro-Gly-Phe-Ser-DThi-Phe-Arg] (H-[dR][dPhe(4-Cl)]PPGFS[d2Thi]FR-OH)",RBP-IA: activity class,rat blood pressure; [2],0
same,RBP-IV: activity class,rat blood pressure; [3],0
same,pA2 /RUT: activity class,isolated rat uterus; isolated rat uterus,0
"N=C(N)NCCC[C@H](NC(=O)[C@H](Cc1cccs1)NC(=O)[C@@H](Cc1ccccc1)NC(=O)[C@H](CO)NC(=O)[C@H](Cc1cccs1)NC(=O)CNC(=O)[C@@H]1CCCN1C(=O)[C@@H]1CCCN1C(=O)[C@H](N)Cc1ccc2ccccc2c1)C(=O)O [Example 22, DNal-Pro-Pro-Gly-Thi-Ser-DPhe-Thi-Arg] (H-[d2Nal]PPG[2Thi]S[dF][2Thi]R-OH)",pA2 /RUT (antagonist potency),isolated rat uterus,5.6
"N=C(N)NCCC[C@@H](N)C(=O)N[C@H](Cc1ccc2ccccc2c1)C(=O)N1CCC[C@H]1C(=O)N1CCC[C@H]1C(=O)NCC(=O)N[C@@H](Cc1cccs1)C(=O)N[C@@H](CO)C(=O)N[C@H](Cc1ccccc1)C(=O)N[C@@H](Cc1cccs1)C(=O)N[C@@H](CCCNC(=N)N)C(=O)O [Example 23, DArg-DNal-Pro-Pro-Gly-Thi-Ser-DPhe-Thi-Arg] (H-[dR][d2Nal]PPG[2Thi]S[dF][2Thi]R-OH)",pA2 /RUT (antagonist potency),isolated rat uterus,5.8
"N=C(N)NCCC[C@H](NC(=O)[C@H](Cc1cccs1)NC(=O)[C@@H](Cc1ccccc1)NC(=O)[C@H](CO)NC(=O)[C@H](Cc1cccs1)NC(=O)CNC(=O)[C@@H]1CCCN1C(=O)[C@@H]1CCCN1C(=O)[C@@H](Cc1ccc2ccccc2c1)NC(=O)[C@H](N)Cc1ccc2ccccc2c1)C(=O)O [Example 25, DNal-DNal-Pro-Pro-Gly-Thi-Ser-DPhe-Thi-Arg] (H-[d2Nal][d2Nal]PPG[2Thi]S[dF][2Thi]R-OH)",pA2 /RUT (antagonist potency),isolated rat uterus; [1],5.6
"N=C(N)NCCC[C@H](NC(=O)[C@H](Cc1ccccc1)NC(=O)[C@@H](Cc1cccs1)NC(=O)[C@H](CO)NC(=O)[C@H](Cc1ccccc1)NC(=O)CNC(=O)[C@@H]1C[C@@H](O)CN1C(=O)[C@@H]1CCCN1C(=O)[C@H](N)Cc1cccs1)C(=O)O [Example 34, DThi Pro-Hyp-Gly-Phe-Ser-DThi-Phe-Arg] (H-[d2Thi]P[Hyp]GFS[d2Thi]FR-OH)",pA2 /RUT: activity class,isolated rat uterus; isolated rat uterus,0
"N=C(N)NCCC[C@H](NC(=O)[C@H](CCCCN)NC(=O)[C@@H](N)CCCCN)C(=O)N1CCC[C@H]1C(=O)N1CCC[C@H]1C(=O)NCC(=O)N[C@@H](Cc1cccs1)C(=O)N[C@@H](CO)C(=O)N[C@H](Cc1ccccc1)C(=O)N[C@@H](Cc1cccs1)C(=O)N[C@H](CCCNC(=N)N)C(=O)O [Example 44, Lys-Lys-Arg-Pro-Pro-Gly-Thi-Ser-DPhe-Thi-DArg] (H-KKRPPG[2Thi]S[dF][2Thi][dR]-OH)",% DESTR (metabolic breakdown of BK-like agonists in RBP assay),"rat blood pressure; rat, in vivo",0%
same,RBP-IA: agonist potency as percent of BK potency,"rat blood pressure; rat, in vivo",0.2%
same,RBP-IV: agonist potency as percent of BK potency,"rat blood pressure; rat, in vivo, iv",14%
"N=C(N)NCCC[C@H](NC(=O)[C@H](Cc1cccs1)NC(=O)[C@@H](Cc1ccccc1)NC(=O)[C@H](CO)NC(=O)[C@H](Cc1cccs1)NC(=O)CNC(=O)[C@@H]1CCCN1C(=O)[C@@H]1CCCN1C(=O)[C@@H](N)CCCNC(=N)N)C(N)=O [Example 51, Arg-Pro-Pro-Gly-Thi-Ser-DPhe-Thi-Arg-NH2] (H-RPPG[2Thi]S[dF][2Thi]R-NH2)",% DESTR (metabolic breakdown of BK-like agonists in RBP assay),"rat blood pressure; rat, in vivo",52%
same,RBP-IA: agonist potency as percent of BK potency,"rat blood pressure; rat, in vivo",0.05%
same,RBP-IV: agonist potency as percent of BK potency,"rat blood pressure; rat, in vivo, iv",2%
same,pA2 /RUT: agonist potency as percent of BK potency,isolated rat uterus,0.02%
"N=C(N)NCCC[C@H](NC(=O)[C@H](Cc1cccs1)NC(=O)[C@@H](Cc1ccccc1)NC(=O)[C@H](CO)NC(=O)[C@H](Cc1cccs1)NC(=O)CNC(=O)[C@@H]1CCCN1C(=O)[C@@H]1CCCN1C(=O)[C@H](CCCNC(=N)N)NC(=O)[C@H](CCCCN)NC(=O)[C@@H](N)CCCCN)C(N)=O [Example 54, Lys-Lys-Arg-Pro-Pro-Gly-Thi-Ser-DPhe-Thi-Arg-NH2] (H-KKRPPG[2Thi]S[dF][2Thi]R-NH2)",pA2 /RUT: agonist potency as percent of BK potency,isolated rat uterus,0.02%
"N=C(N)NCCC[C@H](N)C(=O)N1CCC[C@H]1C(=O)N1CCC[C@H]1C(=O)NCC(=O)N[C@@H](Cc1cccs1)C(=O)N[C@@H](CO)C(=O)N[C@H](Cc1ccccc1)C(=O)N[C@@H](Cc1cccs1)C(=O)N[C@H](CCCNC(=N)N)C(N)=O [Example 55, Arg-Pro-Pro-Gly-Thi-Ser-DPhe-Thi-DArg-NH2] (H-RPPG[2Thi]S[dF][2Thi][dR]-NH2)",% DESTR (metabolic breakdown of BK-like agonists in RBP assay),"rat blood pressure; rat, in vivo",61%
same,RBP-IA: agonist potency as percent of BK potency,"rat blood pressure; rat, in vivo",0.1%
same,RBP-IV: agonist potency as percent of BK potency,"rat blood pressure; rat, in vivo, iv",0.9%
same,pA2 /RUT: agonist potency as percent of BK potency,isolated rat uterus,0.01%
"N=C(N)NCCC[C@@H](N)C(=O)N[C@@H](CCCNC(=N)N)C(=O)N1CCC[C@H]1C(=O)N1CCC[C@H]1C(=O)NCC(=O)N[C@@H](Cc1cccs1)C(=O)N[C@@H](CO)C(=O)N[C@H](Cc1ccccc1)C(=O)N[C@@H](Cc1cccs1)C(=O)N[C@H](CCCNC(=N)N)C(N)=O [Example 57, DArg-Arg-Pro-Pro-Gly-Thi-Ser-DPhe-Thi-DArf-NH2] (H-[dR]RPPG[2Thi]S[dF][2Thi][dR]-NH2)",pA2 /RUT: agonist potency as percent of BK potency,isolated rat uterus; isolated rat uterus,0.003%
"CC[C@H](C)[C@H](NC(=O)[C@H](CCCNC(=N)N)NC(=O)[C@H](Cc1cccs1)NC(=O)[C@@H](Cc1ccccc1)NC(=O)[C@H](CO)NC(=O)[C@H](Cc1cccs1)NC(=O)CNC(=O)[C@@H]1C[C@@H](O)CN1C(=O)[C@@H]1CCCN1C(=O)[C@@H](N)CCCNC(=N)N)C(=O)N[C@@H](Cc1ccc(O)cc1)C(=O)O [Example 67, Arg-Pro-Hyp-Gly-Thi-Ser-DPhe-Thi-Arg-Ile-Tyr] (H-RP[Hyp]G[2Thi]S[dF][2Thi]RIY-OH)",pA2 /RUT: agonist potency as percent of BK potency,isolated rat uterus; isolated rat uterus,0.06%
"CC[C@@H](C)[C@@H](NC(=O)[C@H](CCCNC(=N)N)NC(=O)[C@H](Cc1ccccc1)NC(=O)[C@@H](Cc1ccccc1)NC(=O)[C@H](CO)NC(=O)[C@H](Cc1ccccc1)NC(=O)CNC(=O)[C@@H]1CCCN1C(=O)[C@@H]1CCCN1C(=O)[C@@H](N)CCCNC(=N)N)C(=O)N[C@@H](Cc1ccc(O)cc1)C(=O)O [Example 69, Arg-Pro-Pro-Gly-Phe-Ser-DPhe-Phe-Arg-DIle-Tyr] (H-RPPGFS[dF]FR[dI]Y-OH)",RBP-IA: agonist potency as percent of BK potency,rat blood pressure; [2],0.3%
same,RBP-IV: agonist potency as percent of BK potency,rat blood pressure; [3],2%
same,% DESTR (metabolic breakdown of BK-like agonists in RBP assay),rat blood pressure; relative to BK = 100%,75%
"CC[C@@H](C)[C@@H](NC(=O)[C@H](CCCNC(=N)N)NC(=O)[C@H](Cc1cccs1)NC(=O)[C@@H](Cc1ccccc1)NC(=O)[C@H](CO)NC(=O)[C@H](Cc1cccs1)NC(=O)CNC(=O)[C@@H]1CCCN1C(=O)[C@@H]1CCCN1C(=O)[C@@H](N)CCCNC(=N)N)C(=O)N[C@@H](Cc1ccc(O)cc1)C(=O)O [Example 71, Arg-Pro-Pro-Gly-Thi-Ser-DPhe-Thi-Arg-DIle-Tyr] (H-RPPG[2Thi]S[dF][2Thi]R[dI]Y-OH)",RBP-IA: agonist potency as percent of BK potency,rat blood pressure; [2],0.2%
same,RBP-IV: agonist potency as percent of BK potency,rat blood pressure; [3],2%
same,% DESTR (metabolic breakdown of BK-like agonists in RBP assay),rat blood pressure; relative to BK = 100%,55%
"CC[C@@H](C)[C@@H](NC(=O)[C@H](CCCNC(=N)N)NC(=O)[C@H](Cc1cccs1)NC(=O)[C@@H](Cc1ccccc1)NC(=O)[C@H](CO)NC(=O)[C@H](Cc1cccs1)NC(=O)CNC(=O)[C@@H]1C[C@@H](O)CN1C(=O)[C@@H]1CCCN1C(=O)[C@@H](N)CCCNC(=N)N)C(=O)N[C@@H](Cc1ccc(O)cc1)C(=O)O [Example 73, Arg-Pro-Hyp-Gly-Thi-Ser-DPhe-Thi-Arg-DIle-Tyr] (H-RP[Hyp]G[2Thi]S[dF][2Thi]R[dI]Y-OH)",pA2 /RUT: agonist potency as percent of BK potency,isolated rat uterus; isolated rat uterus,0.04%
